In patent US9765061B2, “Trail enhancers for the selective killing of cancer cells” (The Scripps Research Institute, priority 2013, dated 2017):

Key:
[1] = tested on: A549 cell line; assay: Viability of A549 cells, XTT-based assay, with or without TRAIL; assay type: cell-based, human
Experimental: FIG. 4: C12 sensitizes long cancer cell line A549 to TRAIL. (A) Viability of cells was examined after 24-hour incubation in media containing TRAIL (50 ng/ml), compound (C12) (1 μM), compound (C12R) (25 μM) or the indicated combination of TRAIL (T) with (C12) or (C12R). The chemical structures of (C12) and its stereoisomer (C12R) are shown on the right. (B) Viability of cells was examined after 24-hour incubation in media, containing TRAIL (50 ng/ml) and the indicated doses of C12. Viable cells remaining after the treatment were determined as a function of mitochondrial activity of living cells according to XTT-based toxicology assay kit (Sigma) and are shown as a percentage of viable untreated cells.
To test this hypothesis, we examined the effect of C12 in vitro on the activity of TRAIL against A549 cell line derived from a cancer sample of the human lung.
(§1) Cytotoxicity was determined by using the XTT-based toxicology assay kit (Sigma, St. Louis, Miss.) in accordance with the manufacturer's instructions. For some experiments, to confirm the apoptotic nature of toxicity, cells were analyzed using protocols and instructions of the Annexin V-FITC apoptosis detection kit (Biovision, Mountain View, Calif.). In addition, caspase 3, 8 and 9 activities were determined by colorimetric assays (R&D System), and the data are expressed as fold increases compared to the values of untreated or control-treated cells (n=5).

[2] = tested on: primary human hepatocytes; assay: Viability and apoptosis of primary human hepatocytes from normal donors; assay type: cell-based
Experimental: FIG. 8: Safety and pro-apoptotic. activity of (C12). Cells were incubated with TRAIL, (C12), […] (Bor) or a combination of TRAIL and (C12) or Bor as indicated, and cell viability (top panels) or the cleavage of PARP (bottom panels) was determined. (A) Lung cancer cell line A549. (B) Primary human hepatocytes from normal donor.
Therefore, to assess a potential utility of C12 for anti-cancer therapy, we compared the effects of these two compounds—(C12) and bartezomid (Bor)—on TRAIL-mediated apoptosis in cancerous A549 cells and primary human hepatocytes.
Cancer and normal cell culture. Lung cancer cell line A549 and colon cancer cell line HT29 were purchased from ATCC. Breast cancer cell line MDA-MB-468 was received from J. C. Reed (The Burnham Institute, La Jolla, Calif.). Cell lines were maintained in growth medium (GM): DMEM medium (4.5 g/l glucose) supplemented with 10% FBS (HyClone, Logan, Utah), L-glutamine, penicillin/streptomycin and nonessential ammo acids (Invitrogen, Carlsbad, Calif.). Normal human bronchial epithelial (NHBE) cells and normal human mammary epithelial (NHME) cells were obtained from Cambrex (East Rutherford, N.J.) and cultured as recommended by the manufacturer. Normal human colon smooth muscle cells were obtained from ScienCell Research Lab (San Diego, Calif.) and cultured as recommended by the manufacturer. Primary cultures of human hepatocytes (freshly plated; not cryopreserved) and culture medium were obtained from Celsis In Vitro Technologies (Baltimore, Md.). Upon receipt of the cells, the medium was gently aspirated from each well and replenished with InVitroGRO HI medium supplemented with Torpedo Antibiotic Mix (Celsis), and the plates were kept in a 5% CO2, at 37° C. in an incubator at saturating humidity. After 2-4 h, cells were stimulated as described in the text and FIG. legends.
as §1

[3] = tested on: cancer and normal cells; assay: XTT-based viability of cancer and normal cells grown 18 h (FIG. 12); assay type: cell-based; settings: TRAIL alone or the same doses of C12 without TRAIL
Experimental: FIG. 12. (C12) promotes the TRAIL-mediated killing of cancer cells, a), c) Western blot analysis of PARP cleavage in cancer or normal cells treated for 3 h with TRAIL, (C12) or a combination of both, as indicated, b), d) XTT-based assay monitoring the viability of cancer and normal cells grown for 18 h in media containing TRAIL and the indicated doses of (C12). Cell survival was ˜100% in control samples (untreated cells) as well as in samples incubated with TRAIL alone or the same doses of (C12) without TRAIL.
Cancer and normal cell culture. Lung cancer cell line A549 and colon cancer cell line HT29 were purchased from ATCC. Breast cancer cell line MDA-MB-468 was received from J. C. Reed (The Burnham Institute, La Jolla, Calif.). […]
as §1

[4] = tested on: bone marrow-derived macrophages (BMDM); assay: Responses of bone marrow-derived macrophages to AHLs (toxicity, Western blot); assay type: cell-based, mouse
Experimental: FIG. 13. AHL-mediated inhibition of inflammation-induced NF-κB signaling is sufficient for rendering tumors susceptible to TRAIL-induced apoptosis. a) Western blot analysis of PARP cleavage in cancer cells stimulated for 3 h with TRAIL or its combination with different AHLs as indicated, b) Western blot analysis of PARP cleavage as well as phosphorylated forms of eIF2α and p38 in extracts from bone marrow-derived macrophages (BMDM) stimulated with (C12) or (3-N2), i.e., (S)-(3-N2), as indicated, c) Western blot analysis of PARP cleavage and temporal profiles of IκBα expression in BMDM extracts prepared after treatment with LPS or its combination with (C12) or (3-N2). d) Inhibitory effect of (C12) and its derivatives on LPS-induced TNF production in BMDM. e) Lung cancer cells were exposed to (3-N2) (10 μM), TRAIL (0.5 ng/ml), TNF (20 ng/ml) or their combinations as indicated. After 2 h, cell lysates were prepared and analyzed by Western blot for PARP cleavage, IκBα and actin.
Mice, bone marrow-derived macrophages and other cell culture, C57BL/6 mice were purchased from the Jackson Laboratory (Bar Harbor, Me.). Bone marrow-derived macrophages (BMDM) and murine embryonic fibroblasts (MEF) were prepared by using standard protocols that were approved by the TSRI Animal Care and Use Committee. L929/NCTC clone 929 (connective tissue, mouse) cell lines were purchased from ATCC (Manassas, Va.). MEFs and L929 cell line were maintained in GM (see above). BMDM were cultured in 70% GM and 30% L929 conditioned medium. In general, cells (˜60-70% confluence) were incubated in fresh medium for 12-14 h before stimulation.
Antibodies and Western blot analysis. Anti-eIF2α, phospho-eIF2α[…](p-eIF2α), p38, p-p38 (Thr180/Tyr132), p-RelA (Ser536), p-I κB ? 32/36), PARP 20 antibodies were purchased from Cell Signaling; anti-RelA, I κB α, IκBβ were from Santa Cruz Biotechnology. Cellular extracts were prepared and analyzed by Western blot assay as previously described.^E3
(§2) Cell stimulation. In all experiments, BMDM were stimulated with LPS (100 ng/ml), AHL (10-25 μM; usually BMDM and primary macrophages were stimulated by 25 μM of C12) or their combination as indicated in the figure legends. If not indicated, cancer and normal cells were stimulated with 40 ng/ml of TNFα, 20 ng/ml TRAIL and 10 μM (in case of cancer cells) or 25 μM (in case of normal cells) of AHL.

[5] = tested on: cancerous cells; assay: Sensitization of cancerous cells to TRAIL-mediated apoptosis (SAR panel); assay type: cell-based; settings: a number of cancerous cells
Text: Since (C12) is a prototypic member of the 3-oxo-AHL family, the structure-activity-relation (SAR) investigations were warranted to determine generic structural features of AHL, which are required for a cancer-stop and cancer preventing activity as well as for activation of the UPR. To address this questions, a set of AHLs and their analogs were synthesized (see List of AHLs and analogs), and the biological activity of ail compounds were examined on a panel of cancerous and normal cells. The prototypic examples of biochemical data for the selected analogs are shown in FIG. 9 and FIG. 10, whereas Table 2 summarizes the SAR studies for all compounds.
as §2

[6] = tested on: TRAIL-treated lung cancer cells; assay: Toxicity against TRAIL-treated lung cancer cells; assay type: cell-based
Experimental: Considering the potential inherent pharmacokinetic liabilities associated with C12, a small series of compound (C12) analogues was tested against bone marrow-derived macrophages and TRAIL-treated lung cancer cells.
Cancer and normal cell culture. Lung cancer cell line A549 and colon cancer cell line HT29 were purchased from ATCC. Breast cancer cell line MDA-MB-468 was received from J. C. Reed (The Burnham Institute, La Jolla, Calif.). Cell lines were maintained in growth medium (GM): DMEM medium (4.5 g/l glucose) supplemented with 10% FBS (HyClone, Logan, Utah), L-glutamine, penicillin/streptomycin and nonessential ammo acids (Invitrogen, Carlsbad, Calif.). […]
as §1

[7] = tested on: sXBP1 (UPR); assay: RT-PCR assay of spliced XBP1 mRNA (sXBP1) in macrophages; assay type: cell-based, mouse; settings: FIG. 1D and 1E
Text: FIG. 1: C12 induces the UPR in mammalian cells. (A and B). Comparison of the macrophage responsiveness to P. aeruginosa (P.a.), S. typhimurium (S.t), and S. aureus (S.a.). RT-PCR assay of XBP1 (A) and Western blot analysis (B) of p38, its phosphorylated form (p-p38) as well as phosphorylated forms of PERK (p-PERK) and eIF2α (p-eIF2α) in cell extracts after treatment with bacteria are shown. (C) Macrophages were stimulated with P. aeruginosa wild type (wt) or lasI mutant (ΔlasI), and cell extracts (total RNA or total protein) were prepared and analyzed as in (A and B). […] (F) Total RNA was prepared from lung of mice after inoculation of vehicle (-) or (C12) and analyzed in (D). […]
Among key biochemical signatures of the multicomponent ER stress pathway, known as the unfolded protein response (UPR), are the phosphorylation of the α-subunit of eukaryotic translation initiation factor-2 (eIF2α) and activation of the transcription factor XBP1/Hac1 (X-box binding protein-1 in metazoans and homologous to ATF/CREB in yeast, respectively) ^11. […] To initiate our studies, we exposed bone marrow-derived macrophages (BMDM) to these bacteria, and macrophage responsiveness was analyzed for biochemical markers of the UPR and the phosphorylation of the mitogen-activated protein kinase p38, as a common marker of TLR pathways. […]

TRAIL: recombinant human tumor necrosis factor-related apoptosis-inducing ligand, purchased from R&D System
viability and growth, TRAIL alone ([1]; TRAIL 50 ng/ml): did not significantly affect
viability of normal human hepatocytes, TRAIL alone ([2]; FIG. 8B): unchanged
Cell survival [3]: ~100%

CCCCCCCCCC1(CC(=O)N[C@H]2CCOC2=O)N=N1 [Compound 15]
PARP cleavage in macrophages ([4]; Western blot, FIG. 13b): did not induce
eIF2α phosphorylation in macrophages ([4]; Western blot, FIG. 13b): induced eIF2α phosphorylation in a similar fashion
p38 phosphorylation in macrophages ([4]; Western blot, FIG. 13b): did not induce
toxicity to macrophages ([4]; bone marrow-derived macrophages): nontoxic
blocking LPS-induced re-synthesis of IκBα ([4]; macrophages activated by LPS, FIG. 13c): equally effective
toxicity to human hepatocytes, compound alone or in combination with TRAIL ([2]; hepatocytes from normal donors): non-toxic
sensitization of cancerous cells to TRAIL-mediated apoptosis [5]: strongly sensitize
synergistic effects on TRAIL-induced apoptosis in cancer cells ([6]; compared with bortezomib): comparable with those for an anti-cancer agent bortezomib
toxicity against TRAIL-treated cancer cells ([6]; in the presence of TRAIL): exhibited toxicity

CC(C)C[C@H](NC(=O)[C@H](Cc1ccccc1)NC(=O)c1cnccn1)B(O)O [Bor, bortezomib, reference compound]
sensitivity of A549 cells to TRAIL in the presence of compound ([1]; FIG. 8A): comparable increase in sensitivity
toxicity and apoptosis in hepatocytes in the presence of TRAIL ([2]; FIG. 8B): substantially enhanced
toxicity toward hepatocytes, drug alone ([2]; FIG. 8B): relatively low levels of toxicity

[N-]=[N+]=NCCCCCCCCCC(=O)CC(=O)N[C@H]1CCOC1=O [Compound 13]
sensitization of cancerous cells to TRAIL-mediated apoptosis [5]: strongly sensitize

[N-]=[N+]=NCCCCCCCCCC1(CC(=O)N[C@H]2CCOC2=O)N=N1 [Compound 16]
sensitization of cancerous cells to TRAIL-mediated apoptosis [5]: strongly sensitize

CCCCCCCCCC(=O)CC(=O)N[C@@H]1CCOC1=O [Compound 2]
cell growth and viability, compound alone ([1]; C12 1 μM or 25 μM, C12R 25 μM, no TRAIL): practically unchanged
cell growth and viability, combination with TRAIL ([1]; TRAIL (50 ng/ml) and C12R (25 μM)): practically unchanged
induction of sXBP1 / activation of the UPR [7]: ineffective
